The subject of data set [1] is collagen 1A1 and collagen 3A1 expression in kidney, unilateral ureteral obstruction (UUO) model. The experiment in a line: UUO model of kidney fibrosis: kidney collagen 1A1 and collagen 3A1 expression by real-time PCR. The format is in vivo, mice. To be noted: for Collagen 1A1 (Normalized Expression), individual animal / Collagen 3A1 (Normalized Expression), individual animal: 20 mg/kg. A digest of the protocol:
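Fibrosis induced by unilateral ureter ligation, groups of 8; anti-miR-21 compounds dosed at 20 mg/kg around surgery (days −3, −1, +5 or −5, −3, +3; repeat study subcutaneous at −5, −2, +3). Kidneys taken on day 10 or 11; Col1A1 and Col3A1 mRNA measured by real-time PCR, normalized to GAPDH and, in one study, also to sham.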

Data set [2] concerns ischemia reperfusion injury/nephrectomy (IR/Nx) model. Description: Survival rate of IR/Nx model mice two days after nephrectomy. It counts as in vivo. As to the method: The survival rate of IR/Nx model mice two days after nephrectomy was determined across six different experiments to determine if administration of anti-miR-21 compounds increases survival. In the first three experiments, anti-miR-21 compound was administered on days 5, 6, and 7 after ischemia reperfusion injury, and nephrectomy occurred on day 10 or day 11. In the second three experiments, anti-miR-21 compound was administered on days 2, 3, and 4, and nephrectomy occurred on day 7.

The subject of data set [3] is collagen 1A1 and collagen 3A1 expression in kidney, ischemia reperfusion injury (IRI) model. Description: Unilateral ischemia reperfusion injury (IRI) model: kidney collagen 1A1 and collagen 3A1 expression. It counts as in vivo, mouse. To be noted: 14 day study, dosing Day 5, 6, 7, fold change relative to sham.
The subject of data set [4] is ischemia reperfusion injury/nephrectomy (IR/Nx) model. The experiment in a line: Ischemia reperfusion injury/nephrectomy (IR/Nx) model: urinary albumin to creatinine ratio. It counts as in vivo, mouse. From the text:
An ischemia reperfusion injury/nephrectomy (IR/Nx) model is created in the mouse through temporary unilateral clamping of an artery in one kidney, which leads to tubule damage, inflammation, and fibrosis, followed by removal of the second kidney at a later timepoint. In this model, the acute kidney dysfunction phase is useful to test candidate agents for the treatment of acute kidney injury (i.e. up to about the first 5 days), and the later phases of kidney dysfunction are useful to model chronic fibrosis (i.e. after about the first 5 days).
Anti-miR-21 compounds were tested in the IR/Nx model. 25109, a 6-base mismatch to miR-21, was used as a control compound ([…]; where nucleosides not followed by a subscript indicate β-deoxynucleosides; nucleosides followed by a subscript “E” indicate 2′-MOE nucleosides; nucleosides followed by a subscript “S” indicate S-cEt nucleosides; and all internucleoside linkages are phosphorothioate internucleoside linkages).
Unilateral IR was induced for a period of 30 minutes. Treatment groups were as follows: sham IR procedure; IR with PBS administered subcutaneously; IR with mismatched control 25109 administered subcutaneously at a dose of 20 mg/kg; IR with anti-miR-21 compound 25070 administered subcutaneously at a dose of 20 mg/kg; and IR with anti-miR-21 compound 25923 administered subcutaneously at a dose of 20 mg/kg. PBS or anti-miR was administered on days 2, 3, 4, and 8 following IR. On day 8, the healthy kidney was removed by nephrectomy from each animal, and animals were sacrificed on day 9. Just prior to sacrifice, urine was collected by direct bladder puncture.
Urinary albumin to creatinine ratio was measured in the urine from each mouse. […] The geometric mean of the albumin to creatinine ratio in each group of mice was 16 μgAlb/mgCr (nephrectomy-only control), 127 μgAlb/mgCr (IR/Nx, PBS control), 140 μgAlb/mgCr (IR/Nx, 25109 control), 40 μgAlb/mgCr (IR/Nx, 25070), and 31 μgAlb/mgCr (IR/Nx, 25923). Blood urea nitrogen and serum creatinine levels were similar across all IR/Nx mice, and were elevated relative to nephrectomy-only control mice (data not shown).

[5] abbreviates: UUO comparison study, 25070 20 mg/kg s.c. at days -5, -2, +3, irbesartan PO daily days 0-7, sacrifice Day 10.
[6] abbreviates: UUO, 20 mg/kg at days -3, -1, +5 (prophylactic), kidney at day 11, real-time PCR normalized to GAPDH then sham.
Setting [7] is: meta-analysis of repeated UUO studies, 20 mg/kg at days -3, -1, +5, kidney at day 11.
Setting [8] is: repeat UUO study, 20 mg/kg SC, prophylactic.

“And” between values parts separate entries of the source, which are not always exact repeats. Identical values can stand only once.

Consider “AECSATCSAGTCSTGAUSAAGCSTAE (ACATCAGTCTGATAAGCTA; modified nucleosides coded in name, code key not given here) [Compound 25070]”, for which the “Collagen 1A1 (Normalized Expression), individual animal” value in data set [1] (setting [5]) was 87.5 and 67.4 and 22.2 and 61.9 and 42.0 and 69.2 and 68.4 and 95.2; in data set [1] (setting [6]), 67.7 and 97.7 and 88.8 and 95.9 and 71.4 and 44.5 and 73.0 and 109.4; in data set [1] (setting [8]) it was 13.9 and 9.2 and 32.3 and 57.2 and 47.6 and 26.1 and 35.0 and 20.4; in data set [3], 21.7 and 22.8 and 15.8 and 27.6 and 27.1 and 29.3 and 10.8 and 21.5 and 29.9 and 35.0 and 28.3 and 24.2. For the same sequence, the “Collagen 3A1 (Normalized Expression), individual animal” value in data set [1] (setting [5]) was 38.6 and 56.9 and 77.2 and 50.7 and 76.4 and 49.7 and 44.3 and 35.9; in data set [1] (setting [6]), 36.4 and 75.6 and 47.3 and 55.5 and 63.3 and 28.5 and 64.2 and 72.9; in data set [1] (setting [8]) it was 34.9 and 47.4 and 25.3 and 38.0 and 47.9 and 54.3 and 56.1 and 35.2; in data set [3] it was 24.9 and 26.3 and 13.6 and 25.4 and 32.7 and 29.9 and 9.7 and 22.2 and 33.2 and 35.4 and 32.3 and 28.9. The “reduction in Col3a1 expression (in words)” value in data set [1] (UUO comparison with irbesartan, 25070 s.c. 20 mg/kg days -5, -2, +3, irbesartan perorally daily days 0-7, day 10) is reported as “statistically significant reductions”. Besides, in data set [1] (UUO comparison with irbesartan, 25070 s.c. 20 mg/kg days -5, -2, +3, irbesartan perorally daily days 0-7, day 10, p<0.05 one-way ANOVA), the “reduction in Col1A1 expression relative to saline-treated animals (in words)” value is recorded as “statistically significant reduction”. In data set [1] (UUO, 20 mg/kg at days -3, -1, +5 (prophylactic), kidney at day 11, group mean), the “Collagen 1A1 (Normalized Expression), Mean” value is given as 81.0. Moreover, the “inhibition of collagen 1A1 expression” value in data set [1] (setting [7]) stood at 40%. Also, the “inhibition of collagen 3A1 expression” value in data set [1] (setting [7]) turned out to be 30%. The “inhibition of collagen 1A1 and collagen 3A1 expression (in words)” value in data set [1] (repeated UUO study, subcutaneously 20 mg/kg, prophylactic) was “potent inhibitor of collagen 1A1 and collagen 3A1 expression”. Further, the “Survival rate 2 days after Nx” value in data set [2] (Study 4, Nx Day 7, 20 mg/kg on days 2, 3, 4 after IR) is 75%. Moreover, the “survival rate 2 days after nephrectomy” value is 80% in data set [2] (first three experiments: dosing days 5, 6, 7, nephrectomy day 10 or 11, PBS 55%, P=0.02) and 69% in data set [2] (second three experiments: dosing days 2, 3, 4, nephrectomy day 7, PBS 52%, P=0.11). Besides, in data set [4] (s.c. 20 mg/kg on days 2, 3, 4, 8), the “reduction in urinary albumin to creatinine ratio (in words)” value is “statistically significant reductions”. Further, the “geometric mean of the urinary albumin to creatinine ratio” value in data set [4] (s.c. 20 mg/kg on days 2, 3, 4, 8, urine day 9, PBS control 127, nephrectomy-only 16) is listed as 40 μgAlb/mgCr.
